Experimental data taken from patent publication US20110104145A1, “METHOD FOR THE TREATMENT OR PROPHYLAXIS OF CHRONIC INFLAMMATORY DISEASES” (priority 2008, published 2011).

Tested on: binding between IgA and CD89
Test: Blocking assay: two-dimensional polymorphonuclear cell migration to IgA-coated beads
Assay type: cell-based, human
Conditions: PKH67-polymorphonuclear cells, blocker 1-100 μg/ml, 20' at 37° C., assay of example 4
Procedure: FIG. 6. IgA-induced migration can be reduced by interfering with IgA-CD89 interactions. Percentage inhibition of polymorphonuclear cell migration in the presence of 3 different anti-FcαRI mAb (white bars), 6 peptides that mimic either the IgA binding site on CD89 or the CD89 binding site on IgA (black bars) or a soluble variant of CD89 or FcαRI (sFcalphaRI, grey bar).
PKH67-polymorphonuclear cells (2.5×10^5 cells/well) were seeded in 96 wells flat bottom plates (Greiner), after which immunoglobulin-coated beads (10 μl/well) were added. For binding assays, cells were kept at 4° C. For migration assays, cells were incubated for 20′ 37° C., after which cell suspensions were collected and beads were washed 2 times with PBS to remove unbound PKH67-polymorphonuclear cells. Beads were incubated with a buffer containing 2.0 g/l hexadecyltrimethyl ammonium bromide, 1.0 g/l tween 20, 2.0 g/l BSA and 7.44 g/l EDTA in PBS to lyse bound PKH67-polymorphonuclear cells. Fluorescence was measured using 485 excitation and 520 emission filters (Fluostar Galaxy, BMG Labtechnologies, Offenburg, Germany).
The blocking potential of anti-FcαRI antibodies and/or sFcαRI and/or peptides that mimic either the IgA binding site on CD89 or the CD89 binding site on IgA was investigated using a 2-dimensional polymorphonuclear cells migration assay as detailed in example 4. For that purpose, PKH67-polymorphonuclear cells were incubated with different concentrations (ranging from 1-100 μg/ml in RPMI) of either anti-FcαRI blocking antibodies or with peptides mimicking the IgA binding site on CD89 for 20 minutes at 37° C. IgA-coated beads were incubated with different concentrations (ranging from 1-100 μg/ml in RPMI) of peptides mimicking the CD89 binding site on IgA for 20 minutes at 37° C. PKH67-polymorphonuclear cells (2.5×10^5 cells/well) that had not been incubated (as control) or PKH67-polymorphonuclear cells that had been incubated with blocking antibodies or peptides were seeded in 96 wells flat bottom plates (Greiner). Either non-incubated IgA-coated beads, or IgA-coated beads that had been incubated with peptides were added (10 μl/well). Cells were then incubated for 20′ at 37° C., after which cell suspensions were collected and beads were washed 2 times with PBS to remove unbound PKH67-polymorphonuclear cells. Beads were incubated with a buffer containing 2.0 g/l hexadecyltrimethyl ammonium bromide, 1.0 g/l Tween 20, 2.0 g/l BSA and 7.44 g/l EDTA in PBS to lyse bound PKH67-polymorphonuclear cells. Fluorescence was measured using 485 excitation and 520 emission filters (Fluostar Galaxy, BMG Labtechnologies, Offenburg, Germany) to determine the number of polymorphonuclear cells that had bound to IgA-coated beads. Percentage blocking was determined using the following equation: 100−(number of bound cells in blocking situation/number of bound cells without blocking×100) %.

Row | Molecule | blocking of the interaction between IgA and CD89
1 | EDLLLGSEA [IgA CH2] | up to 23%
2 | REIGRRLKFWNETDP [Fc alpha 113] | up to 19%

Same assay, conditions: polymorphonuclear cells

Row | Molecule | blocking of the IgA-CD89 interaction / reduction of polymorphonuclear cell migration to IgA-beads (in words)
3 | GRYQCQYRIGHYRFRYSD [Sym-060] | performed somewhat less but was still found useful
4 | sFcαRI: soluble form of FcαRI: extracellular part (ecto domain) of FcαRI expressed in 293T cells | efficiently block the interaction
5 | YRIGHYRFR | performed well
6 | AQAIREAYL | performed well
7 | SCMVGHEALPLAFTQCT [PEO-46#7,8] | provided good results
8 | LKFWNETDP | performed well

Tested on: polymorphonuclear cells
Test: Human skin migration assay (ex vivo skin graft, IgA-coated beads)
Assay type: cell-based
Conditions: ex vivo mammary skin graft, beads injected intracutaneously, overnight at 37° C.
Procedure: A full thickness mammary skin graft (epidermis and dermis) was placed in an ex-vivo tissue incubation chamber (method adapted from Oosterling, S J et al. Ann Surg. 2008; 247(1):85-94). 5 μl of IgA- or BSA-coated beads (17.5 μg/μl) were injected intracutaneously via the dermis, followed by addition of PKH-67 labeled polymorphonuclear cells (4×10^6 cells/well) to the wells. Due to the short half-life of polymorphonuclear cells after isolation, cells were supplemented with IFN-γ (300 units/ml; Boehringer Ingelheim, Alkmaar, The Netherlands). Skin was incubated overnight at 37° C. Biopsies of the injected skin were taken and snap frozen. Sections of biopsies were analysed with bright field and fluorescence microscopy.

Row | Molecule | migration of polymorphonuclear cells to IgA-coated beads in human skin
9 | sFcαRI: soluble form of FcαRI: extracellular part (ecto domain) of FcαRI expressed in 293T cells | completely prevent migration
10 | SSMVGHEALPLAFTQKT [PEO-45#7,8, 17-mer stretch (amino acids 431-447) selected from the Fc region of IgA] | completely prevent migration
11 | GRYQAQYRIGHYRFRYSD [PEO-50#8,9, EF loop peptide (CD89 75-92)] | completely prevent migration

Tested on: polymorphonuclear cells
Test: Chemotaxis assay with supernatants of IgA-bead migration experiments
Assay type: cell-based, human
Conditions: mAb 100 μg/ml; U75302 10 μM in ethanol; 40 minutes at 37° C.
Procedure: B) Supernatant was collected after addition of IgA-beads, and migration of freshly isolated polymorphonuclear cells to collected supernatant was measured in the presence of anti-BLTR1 (LTB4 receptor), anti-IL-8 or an isotype mAb control. Additionally, either an LTB4 receptor antagonist (U75302 in ethanol) or ethanol alone was added. Migration to supernatant in the absence of inhibitors was set at 100%.
Chemotaxis assays were essentially performed as described (Frevert et al., J. Immunol. Methods 213, 41 (1998)), modified for use in a 48 well Neuroprobe blind well chemotaxis chamber (Gaithersburg, Md.). Briefly, bottom wells were filled with supernatants of migration experiments (25 μl), and covered with a 3 μm pore polycarbonate filter (Neuroprobe). Purified LTB4 (Sigma) or IL-8 (Peprotech, Rocky Hill, N.J.) were used as positive controls. Top wells were filled with 50 μl calcein AM-labeled polymorphonuclear cells (1×10^6/ml). After a 40 minutes incubation period at 37° C., cells that had migrated towards the lower compartments were quantified with a fluorimeter (485 excitation/520 emission filters). To inhibit IL-8 mediated migration, experiments were conducted in the presence of 100 μg/ml blocking anti-IL-8 mAb (BD Biosciences). LTB4-mediated migration was investigated by blocking LTB4 receptors with 100 μg/ml anti-BLTR1 mAb (BD Biosciences). […]

Row | Molecule | chemotactic activity of supernatant of IgA-bead migration experiments
12 | CCCCC/C=C\C[C@@H](O)/C=C/c1cccc(C[C@@H](O)CCCCO)n1 [receptor antagonist, U75302] | reduced
